Measured values from US12590071B2, “Hydrazone derivative in which terminal amine group is substituted with aryl group or heteroaryl group, and use thereof” (KOREA INSTITUTE OF SCIENCE AND TECHNOLOGY, priority 2018, dated 2026).
pIC50: −log10 of the molar value.

How the values were obtained:
CYP2C9 = biological target: T1, CYP2C9 (Homo sapiens, UniProt P11712); assay: Inhibition of CYP coenzyme activity in human liver microsomes; assay type: in vitro ADME; conditions: compound 10 PM (so in the source); human liver microsomes 0.25 mg/mL; substrate diclofenac; 15 minutes
T1 construct: human liver microsomes (0.25 mg/mL); from tissue; host or cells: human liver microsomes
T1 sequence (P11712 whole entry): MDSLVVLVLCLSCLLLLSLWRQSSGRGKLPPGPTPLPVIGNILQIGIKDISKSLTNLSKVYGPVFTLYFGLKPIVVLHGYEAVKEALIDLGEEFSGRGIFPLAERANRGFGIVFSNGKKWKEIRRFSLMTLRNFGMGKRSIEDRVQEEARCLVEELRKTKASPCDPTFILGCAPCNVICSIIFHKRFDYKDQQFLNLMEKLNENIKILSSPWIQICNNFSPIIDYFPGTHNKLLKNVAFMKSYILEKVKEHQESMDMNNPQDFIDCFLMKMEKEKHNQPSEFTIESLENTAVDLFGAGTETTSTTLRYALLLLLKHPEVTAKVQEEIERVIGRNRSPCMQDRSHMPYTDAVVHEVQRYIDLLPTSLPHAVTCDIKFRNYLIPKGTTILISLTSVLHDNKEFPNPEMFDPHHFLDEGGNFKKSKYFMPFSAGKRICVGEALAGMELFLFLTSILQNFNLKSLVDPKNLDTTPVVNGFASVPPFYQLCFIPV
Protocol: (§1) 5 The inhibition effects of CYP coenzyme activity by the compounds prepared according to Examples 1 to 171 was confirmed. Specifically, human liver microsomes (0.25 mg/mL), a 0.1 M phosphate buffer solution (pH 7.4), substrate drug cocktails (phenacetin 50 μM, diclofenac 10 μM, S-mephenytoin 100 μM, dextromethorphan 5 μM, and midazolam 2.5 μM) of five kinds of drug metabolism enzymes, and the compounds with a concentration of 0 μM or 10 PM were added, respectively. Then the mixture was cultured in advance at 37° C. for 5 minutes, and then further cultured at 37° C. for 15 minutes together with the addition of an NADPH generation system solution. Thereafter, a reaction was terminated by adding an acetonitrile solution containing an internal standard material (terfenadine), centrifugal separation (14,000 rpm, 4° C.) was performed for 5 minutes, and then a supernatant was injected into an LC-MS/MS system. Metabolites of the substrate drugs were simultaneously analyzed to evaluate the drug metabolism inhibition ability.
(§2) Metabolites of each CYP coenzyme indicator drug generated through the reaction were analyzed using the Shimadzu Nexera XR system and TSQ vantage (Thermo). Kinetex C18 (2.1 mm×100 mm, 2.6 μm, particle size; Phenomenex, USA) was used in an HPLC column, and (A) distilled water containing 0.1% formic acid and (B) acetonitrile containing 0.1% formic acid were used as mobile phases, and the gradient program shown in Table 2 was applied.
(§3) The generated metabolites were quantified using an MRM (multiple reaction monitoring) quantification mode, and Xcalibur (version 1.6.1) was used for data analysis.

CYP2C19 = biological target: T2, CYP2C19 (Homo sapiens, UniProt P33261); assay: as above; assay type: in vitro ADME; conditions: compound 10 PM (so in the source); human liver microsomes 0.25 mg/mL; substrate S-mephenytoin; 15 minutes
T2 construct: human liver microsomes (0.25 mg/mL); from tissue; host or cells: human liver microsomes
T2 sequence (P33261 whole entry): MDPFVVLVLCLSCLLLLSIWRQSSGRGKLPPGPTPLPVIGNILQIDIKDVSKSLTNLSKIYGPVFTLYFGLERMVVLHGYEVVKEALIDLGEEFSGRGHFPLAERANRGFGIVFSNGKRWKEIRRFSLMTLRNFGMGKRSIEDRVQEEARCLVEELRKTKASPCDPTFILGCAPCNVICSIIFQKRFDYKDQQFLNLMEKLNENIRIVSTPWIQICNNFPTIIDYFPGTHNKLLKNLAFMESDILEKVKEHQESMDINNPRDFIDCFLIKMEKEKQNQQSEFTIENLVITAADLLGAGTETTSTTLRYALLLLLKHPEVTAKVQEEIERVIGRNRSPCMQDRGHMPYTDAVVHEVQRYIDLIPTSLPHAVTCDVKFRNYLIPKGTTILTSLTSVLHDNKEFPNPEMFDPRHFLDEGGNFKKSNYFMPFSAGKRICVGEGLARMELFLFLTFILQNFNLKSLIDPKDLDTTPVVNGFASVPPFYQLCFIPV
Protocol: as §1, §2, §3

CYP1A2 = biological target: T3, CYP1A2 (Homo sapiens, UniProt P05177); assay: as above; assay type: in vitro ADME; conditions: compound 10 PM (so in the source); human liver microsomes 0.25 mg/mL; substrate phenacetin; 15 minutes
T3 construct: human liver microsomes (0.25 mg/mL); from tissue; host or cells: human liver microsomes
T3 sequence (P05177 1-516): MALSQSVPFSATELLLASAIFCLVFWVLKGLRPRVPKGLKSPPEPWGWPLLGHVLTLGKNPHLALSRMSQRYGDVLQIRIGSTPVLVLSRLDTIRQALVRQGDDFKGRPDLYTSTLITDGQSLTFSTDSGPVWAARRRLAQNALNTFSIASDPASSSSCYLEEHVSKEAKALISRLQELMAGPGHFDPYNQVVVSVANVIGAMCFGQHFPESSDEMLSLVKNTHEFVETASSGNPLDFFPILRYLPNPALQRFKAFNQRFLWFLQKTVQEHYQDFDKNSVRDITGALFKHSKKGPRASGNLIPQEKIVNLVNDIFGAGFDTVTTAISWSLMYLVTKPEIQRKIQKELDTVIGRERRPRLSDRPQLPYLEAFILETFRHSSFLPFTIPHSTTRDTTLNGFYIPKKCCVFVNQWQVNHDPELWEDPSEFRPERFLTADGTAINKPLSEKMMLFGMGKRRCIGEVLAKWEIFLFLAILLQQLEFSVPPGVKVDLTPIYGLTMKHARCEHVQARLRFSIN
Protocol: as §1, §2, §3

CYP2D6 = biological target: T4, CYP2D6 (Homo sapiens, UniProt P10635); assay: as above; assay type: in vitro ADME; conditions: compound 10 PM (so in the source); human liver microsomes 0.25 mg/mL; substrate dextromethorphan; 15 minutes
T4 construct: human liver microsomes (0.25 mg/mL); from tissue; host or cells: human liver microsomes
T4 sequence (P10635 whole entry): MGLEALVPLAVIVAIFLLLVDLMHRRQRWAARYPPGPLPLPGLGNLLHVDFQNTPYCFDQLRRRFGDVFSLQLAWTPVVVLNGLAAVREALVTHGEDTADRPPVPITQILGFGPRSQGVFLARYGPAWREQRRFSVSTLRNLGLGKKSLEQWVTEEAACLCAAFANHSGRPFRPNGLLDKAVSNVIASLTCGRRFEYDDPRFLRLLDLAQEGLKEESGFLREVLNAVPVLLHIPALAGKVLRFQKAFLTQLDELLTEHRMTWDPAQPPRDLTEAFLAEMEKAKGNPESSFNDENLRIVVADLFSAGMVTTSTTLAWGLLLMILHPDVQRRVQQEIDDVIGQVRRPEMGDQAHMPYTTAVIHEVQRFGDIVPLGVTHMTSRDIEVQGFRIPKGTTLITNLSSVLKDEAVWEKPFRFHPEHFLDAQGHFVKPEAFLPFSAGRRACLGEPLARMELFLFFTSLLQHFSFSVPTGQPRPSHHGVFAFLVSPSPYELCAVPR
Protocol: as §1, §2, §3

[1] = Liver microsomal stability (dog); assay type: in vitro ADME; conditions: amount of substrate remaining; 1 μM, 0.25 mg/mL microsomes, 37° C., 30 minutes
Protocol: (§4) The liver microsomal stability of the compounds prepared according to Examples 1 to 171 was confirmed. Specifically, four kinds of liver microsomes (human, dog, rat, and mouse, each 0.25 mg/mL), a 0.1 M phosphate buffer solution (pH 7.4), and the compounds with a concentration of 1 μM were added, respectively. Then the mixture was cultured in advance at 37° C. for 5 minutes, and then further cultured at 37° C. for 30 minutes together with the addition of an NADPH generation system solution. Thereafter, a reaction was terminated by adding an acetonitrile solution containing an internal standard material (chloropropamide), centrifugal separation (14,000 rpm, 4° C.) was performed for 5 minutes, and then a supernatant was injected into an LC-MS/MS system. The substrate drugs were analyzed to evaluate the metabolic stability for 8 kinds of compounds.
(§5) The amount of substrate remaining through the reaction was analyzed using the Shimadzu Nexera XR system and TSQ vantage (Thermo). Kinetex XB-C18 (2.1 mm×100 mm, 2.6 μm, particle size; Phenomenex, USA) was used in an HPLC column, and (A) distilled water containing 0.1% formic acid and (B) acetonitrile containing 0.1% formic acid were used as mobile phases. Analyst software (version 1.6.3) and Xcalibur (version 1.6.1) were used for data analysis.

[2] = Liver microsomal stability (human); assay type: in vitro ADME; conditions: amount of substrate remaining; 1 μM, 0.25 mg/mL microsomes, 37° C., 30 minutes
Protocol: as §4, §5

CYP3A4 = biological target: T5, CYP3A4 (Homo sapiens, UniProt P08684); assay: Inhibition of CYP coenzyme activity in human liver microsomes; assay type: in vitro ADME; parameters: scale not given here; conditions: compound 10 PM (so in the source); human liver microsomes 0.25 mg/mL; substrate midazolam; 15 minutes
T5 construct: human liver microsomes (0.25 mg/mL); from tissue; host or cells: human liver microsomes
T5 sequence (P08684 whole entry): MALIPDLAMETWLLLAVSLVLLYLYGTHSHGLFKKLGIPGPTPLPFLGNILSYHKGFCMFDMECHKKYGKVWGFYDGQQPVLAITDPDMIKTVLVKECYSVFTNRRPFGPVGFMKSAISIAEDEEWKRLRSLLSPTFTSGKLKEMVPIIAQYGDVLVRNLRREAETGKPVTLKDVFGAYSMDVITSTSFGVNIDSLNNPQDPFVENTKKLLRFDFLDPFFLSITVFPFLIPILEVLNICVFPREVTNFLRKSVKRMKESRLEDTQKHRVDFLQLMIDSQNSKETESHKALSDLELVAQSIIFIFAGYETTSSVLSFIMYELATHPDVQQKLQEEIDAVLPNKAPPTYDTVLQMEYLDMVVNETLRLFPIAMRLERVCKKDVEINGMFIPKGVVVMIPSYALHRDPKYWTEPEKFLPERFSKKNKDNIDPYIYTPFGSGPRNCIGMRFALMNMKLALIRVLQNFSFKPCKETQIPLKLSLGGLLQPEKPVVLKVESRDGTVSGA
Protocol: as §1, §2, §3

Tau-BiFC cells = assay: Cytotoxicity (cell survival rate) in tau-BiFC cells; conditions: group treated with Forskolin alone = 100%
Method in brief: (§6)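 Tau-BiFC cells co-treated 48 h with Forskolin ([…]) and compound at 0.03–30 μM. BiFC fluorescence quantified by imaging, IC50 by nonlinear regression; cytotoxicity as Hoechst-stained nuclei count relative to Forskolin-only wells (100% survival).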

[3] = Liver microsomal stability (mouse); assay type: in vitro ADME; conditions: amount of substrate remaining; 1 μM, 0.25 mg/mL microsomes, 37° C., 30 minutes
Protocol: as §4, §5

tau protein = biological target: T6, tau protein (Homo sapiens, UniProt P10636); assay: Tau protein aggregation inhibition in tau-BiFC cell model; assay type: cell-based; conditions: tau-BiFC cells treated together with Forskolin, 48 hours
T6 construct: expressed in transfected cells
T6 sequence (P10636 2-441 isoform P10636-8 limits assumed): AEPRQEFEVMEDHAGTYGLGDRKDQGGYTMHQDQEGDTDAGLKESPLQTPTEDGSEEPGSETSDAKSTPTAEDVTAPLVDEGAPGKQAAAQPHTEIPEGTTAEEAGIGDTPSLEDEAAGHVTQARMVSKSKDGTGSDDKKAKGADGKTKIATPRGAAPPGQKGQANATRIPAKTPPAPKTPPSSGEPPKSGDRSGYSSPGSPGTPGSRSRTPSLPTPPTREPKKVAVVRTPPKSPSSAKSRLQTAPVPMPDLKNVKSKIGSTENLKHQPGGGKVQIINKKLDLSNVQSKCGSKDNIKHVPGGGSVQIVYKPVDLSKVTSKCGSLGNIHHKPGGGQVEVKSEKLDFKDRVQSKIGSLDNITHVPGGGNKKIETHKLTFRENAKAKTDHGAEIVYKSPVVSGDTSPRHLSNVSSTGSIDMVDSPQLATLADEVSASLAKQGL
Method in brief: as §6

[4] = Liver microsomal stability (rat); assay type: in vitro ADME; conditions: amount of substrate remaining; 1 μM, 0.25 mg/mL microsomes, 37° C., 30 minutes
Protocol: as §4, §5

| Structure (SMILES) | inhibition effects of CYP coenzyme activity, CYP2C9 (CYP2C9) | inhibition effects of CYP coenzyme activity, CYP2C19 (CYP2C19) | inhibition effects of CYP coenzyme activity, CYP1A2 (CYP1A2) | inhibition effects of CYP coenzyme activity, CYP2D6 (CYP2D6) | liver microsomal stability, Dog (%) [1] [%] | liver microsomal stability, Human (%) [2] [%] | inhibition effects of CYP coenzyme activity, CYP3A4 (CYP3A4) | Cell survival rate (% @ 10 μM) (Tau-BiFC cells) [%] | liver microsomal stability, Mouse (%) [3] [%] | pIC50 (tau protein) | liver microsomal stability, Rat (%) [4] [%] |
| --- | --- | --- | --- | --- | --- | --- | --- | --- | --- | --- | --- |
| COc1cc(-c2nccc(C)n2)ccc1NN=C(C#N)C#N [Compound 42, (2-methoxy-4-(4-methylpyrimidin-2-yl)phenyl)carbonohydrazonoyl dicyanide] | 88.8 | 96.2 | 83.6 | >100 | 30.7 | 53.4 | >100 | 128 | 47.9 | 5.52 | 46.5 |
| N#CC(C#N)=NNc1cnc2[nH]ccc2c1 [Compound 72, (1H-pyrrolo[2,3-b]pyridin-5-yl)carbonohydrazonoyl dicyanide] | 88.7 | 97.8 | 85.8 | 98.9 | 84.8 | 86.3 | >100 | 89.5 | 58.6 | 7.46 | 72.8 |
| Cc1cnn(-c2ccc(NN=C(C#N)C#N)cc2)c1 [Compound 36, (4-(4-methyl-1H-pyrazol-1-yl)phenyl)carbonohydrazonoyl dicyanide] | 60.7 | >100 | 86 | 98.6 | 60.6 | 65.9 | >100 | 99.3 | 37.9 | 7.28 | 20.1 |
| Cc1cncc(-c2nc3ccc(NN=C(C#N)C#N)cc3s2)c1 [Compound 110, (2-(5-methylpyridin-3-yl)benzo[d]thiazol-6-yl)carbonohydrazonoyl dicyanide] | 60.2 | 51.3 | 55 | 70.8 | 60.2 | 55 | 55 | 74.6 | 70.8 | 6.12 | 51.3 |
| N#CC(C#N)=NNc1ccc2scnc2c1 [Compound 61, benzo[d]thiazol-5-ylcarbonohydrazonoyl dicyanide] | 75.5 | 93.6 | 45.1 | >100 | 32.6 | 70.4 | 90.1 | 111.7 | 33.5 | 5.51 | 66.2 |
| Cc1ncsc1-c1ccc(NN=C(C#N)C#N)cc1 [Compound 12, (4-(4-methylthiazol-5-yl)phenyl)carbonohydrazonoyl dicyanide] | 7.4 | 81.3 | 88.1 | 87.8 | 81.6 | 52.2 | 91.6 | 119.3 | 45.2 | 7.52 | 25.8 |
| Cc1cnc(-c2ccc(NN=C(C#N)C#N)cc2)nc1 [Compound 4, (4-(5-methylpyrimidin-2-yl)phenyl)carbonohydrazonoyl dicyanide] | 81.5 | 90.7 | 85.1 | 97.3 | 75 | 70.1 | >100 | 93.1 | 35.6 | 6.19 | 4.5 |
